{"source": "patent EP4670722A1", "about": "“PROPHYLACTIC OR AMELIORATING AGENT FOR CELL AGING” (Kyowa Pharma Chemical Co., Ltd., priority 2023, dated 2024)", "assay_type_in_all_cases": "cell-based", "key": {"[1]": {"test_system": "Human normal dermal fibroblasts (NB1RGB) with a PDL of 30 or less", "test": "Cell proliferation rate (MTT) of normal dermal fibroblasts", "conditions": "50 µg/mL to 200 µg/mL, 2 days, activity increased as content increased, Fig. 2", "procedure": "Human normal dermal fibroblasts (NB1RGB) with a PDL of 30 or less and human senescent dermal fibroblasts (NB1RGB) with a PDL of 50 or more were each cultured using DMEM containing 10% FBS. The cultured cells were collected by trypsin treatment. The collected cells were seeded in a 96-well microplate at a concentration of 5.0 x 10^3 cells/well and cultured overnight. Thereafter, the cells were cultured for 2 days at 37°C in a medium for fibroblast proliferation (FBS-free) to which a test sample (sucrose or 2'-fucosyllactose) was added to a concentration of 50 µg/mL, 100 µg/mL,or 200 µg/mL. The medium was replaced with FBS-free DMEM medium, then 10 µL/well of 5 mg/mL 3-[4,5-dimethylthiazol-2-yl]-2,5-diphenyltetrazolium bromide (MTT) was added, and the cells were cultured at 37°C for 3 hours. […] After extraction, the absorbance of formazan (As, 492 nm) was measured with a microplate reader. […]\nHuman normal dermal fibroblasts with a PDL of 30 or less and human senescent fibroblasts with a PDL of 50 or more were each cultured and the absorbance of formazan was measured in the same manner as in Example 2-1, except that no test sample was added. The obtained absorbance was designated as Ab, and the cell proliferation rate represented by the above formula (1) was determined for each case of PDL of 30 or less and PDL of 50 or more."}, "[2]": {"test_system": "Human normal dermal fibroblasts (NB1RGB) with a PDL of 30 or less", "test": "Cell viability (Cell Counting Kit-8) of tunicamycin-treated dermal fibroblasts", "conditions": "NB1RGB PDL of 30 or less, tunicamycin 0.3 µg/mL, 50 µg/mL to 200 µg/mL, 24 hours; effect increased as content increased; Fig. 6", "procedure": "Human normal dermal fibroblasts (NB1RGB) with a PDL of 30 or less were cultured using DMEM containing 10% FBS. The cultured cells were collected by trypsin treatment. The collected cells were seeded in a 96-well plate, and when they reached 100% confluence, tunicamycin was added at 0.3 µg/mL, and the cells were cultured for 24 hours. A group was also prepared in which FBS-free DMEM medium containing a test sample (2'-fucosyllactose) at 50 µg/mL, 100 µg/mL, or 200 µg/mL was added simultaneously with tunicamycin, and cultured for 24 hours. After completion of culture, the viability of human normal dermal fibroblasts was evaluated using Cell Counting Kit-8 (manufactured by Dojindo Laboratories). The measurement wavelength (As) was set to 450 nm, and the reference wavelength was set to 620 nm.\nHuman normal dermal fibroblasts with a PDL of 30 or less were cultured and the absorbance at a measurement wavelength of 450 nm was measured in the same manner as in Example 5-1, except that tunicamycin and the test sample were not added. The obtained absorbance was designated as Ab, and the cell viability represented by the above formula (1) was determined."}, "GLS1": {"test_system": "GLS1", "test": "GLS1 expression analysis (ELISA) in HUVEC after high glucose treatment", "conditions": "human umbilical vein endothelial cells (HUVEC), 50 µg/mL to 1000 µg/mL, 24 hours; effect increased as content increased; Fig. 12", "procedure": "Human umbilical vein endothelial cells (HUVEC) were cultured in DMEM + 10% FBS + 5 mM glucose (normal medium). The cultured cells were collected by trypsin treatment. The collected cells were seeded in a 10 cm dish and cultured for 24 hours in a 37°C, 5% CO2 incubator. Thereafter, a treatment of exposing the cells to DMEM + 10% FBS + 30 mM glucose (high glucose medium) for 10 hours and to normal medium for 14 hours was performed for 7 days. After 7 days, normal medium containing the test sample (2'-FL and lactose) at 50 µg/mL, 200 µg/mL, or 1000 µg/mL was added, and cultured for 24 hours in a 37°C, 5% CO2 incubator. The culture supernatant was removed, the cells were washed twice with PBS, and 0.20 mL of RIPA buffer was added to extract total protein. Protein in each protein extract was quantified by the Bradford assay.\nProtein extracts were collected in the same manner as in [Example 10-1 B. Human gastric undifferentiated carcinoma cells (KKLS)], [Example 10-1 C. Mouse microglial cells (BV2)], [Example 10-1 D. Human gingival fibroblasts (Gin-1)], and [Example 10-1 E. Human umbilical vein endothelial cells (HUVEC)], respectively, except that a medium same as the above-mentioned medium but not containing the test sample was used instead of the medium containing the test sample, and protein in each protein extract was quantified by the Bradford assay. […]"}}, "data": [{"smiles": "C[C@@H]1O[C@@H](O[C@H]2[C@H](O[C@H]3[C@H](O)[C@@H](O)C(O)O[C@@H]3CO)O[C@H](CO)[C@H](O)[C@@H]2O)[C@@H](O)[C@H](O)[C@@H]1O", "note": "(stereo partly drawn) [2'-FL, 2'-fucosyllactose]", "values": [{"measurement": "proliferation activity of normal fibroblasts (cell proliferation rate)", "setting": "[1]", "value": "improved the proliferation activity of normal fibroblasts"}, {"measurement": "endoplasmic reticulum stress (cell viability)", "setting": "[2]", "value": "ameliorated endoplasmic reticulum stress"}, {"measurement": "GLS1 expression", "setting": "GLS1", "value": "suppressed GLS1 expression"}]}]}
